According to patent US7232690B1, “Method and device for detecting and isolating pharmacological compounds being contained in substance mixtures” (LTS Lohmann Therapie-Systeme AG, priority 1999, dated 2007):
Values belong to the compound of their own block, whether it stands above or below them.

Target: β2-adrenoreceptor (Homo sapiens, UniProt P07550)
Experiment: Ultrafiltration target-binding test of extract of taraxacum with β2-adrenoreceptor membrane preparation (Example 3)
[1] = Sample 351, no receptor, extract 1.5 mg (7.5 g/l)
[2] = Sample 355, receptor 1.04 pmol (5.2 nmol/l), extract 1.5 pmol (7.5 nmol/l)
[3] = Sample 356, receptor 1.04 pmol (5.2 nmol/l), extract 1.5 pmol (7.5 nmol/l)
[4] = Sample 360, no receptor, extract 0.3 mg (1.5 g/l)
[5] = Sample 361, receptor 1.04 pmol (5.2 nmol/l), extract 0.3 mg (1.5 g/l)
[6] = Sample 362, no receptor, extract 0.6 mg (3 g/l)
[7] = Sample 363, receptor 1.04 pmol (5.2 nmol/l), extract 0.6 mg (3 g/l)
[8] = Sample 364, no receptor, extract 1.0 mg (5.0 g/l)
[9] = Sample 365, receptor 1.04 pmol (5.2 nmol/l), extract 1.0 mg (5.0 g/l)
[10] = Sample 366, receptor 1.04 pmol (5.2 nmol/l), extract 1.5 mg (7.5 g/l)
[11] = Sample 367, receptor 1.04 pmol (5.2 nmol/l), extract 1.5 mg (7.5 g/l)
[12] = Sample 369, receptor 1.04 pmol (5.2 nmol/l), extract 1.5 mg (7.5 g/l)
[13] = Sample 373, receptor 1.04 pmol (5.2 nmol/l), extract 1.5 mg (7.5 g/l)
[14] = Sample 374, receptor 0.52 pmol (2.6 nmol/l), extract 1.5 mg (7.5 g/l)
[15] = Sample 375, receptor 0.26 pmol (1.3 nmol/l), extract 1.5 mg (7.5 g/l)

Sequence of β2-adrenoreceptor (P07550 whole entry): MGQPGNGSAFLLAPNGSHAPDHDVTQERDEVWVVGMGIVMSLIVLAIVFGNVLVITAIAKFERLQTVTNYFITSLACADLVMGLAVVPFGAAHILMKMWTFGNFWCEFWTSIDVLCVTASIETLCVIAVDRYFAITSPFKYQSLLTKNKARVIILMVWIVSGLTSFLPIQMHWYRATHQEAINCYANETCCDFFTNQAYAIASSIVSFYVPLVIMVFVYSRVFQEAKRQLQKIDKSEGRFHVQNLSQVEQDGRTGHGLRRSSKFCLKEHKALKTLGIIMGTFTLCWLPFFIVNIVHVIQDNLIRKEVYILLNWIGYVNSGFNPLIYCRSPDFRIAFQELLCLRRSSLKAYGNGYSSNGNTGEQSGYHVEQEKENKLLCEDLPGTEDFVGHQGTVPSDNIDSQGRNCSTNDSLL

SMILES: O=C(/C=C/c1ccc(O)c(O)c1)OC(C(=O)O)C(O)C(=O)O (stereo not drawn) [Substance L3, trans-caftarinic acid]
1st Wash [1]: 51.0 nmol/L
2nd Wash [1]: 8.0 nmol/L
Filtrate [1]: 740.3 nmol/L
Liberation [1]: 11.9 nmol/L
1st Wash [2]: 88.8 nmol/L
2nd Wash [2]: 12.9 nmol/L
Filtrate [2]: 353.5 nmol/L
Liberation [2]: 15.8 nmol/L
1st Wash [3]: 79.0 nmol/L
2nd Wash [3]: 9.9 nmol/L
Filtrate [3]: 961.9 nmol/L
Liberation [3]: 26.3 nmol/L
1st Wash [4]: 22.7 nmol/L
2nd Wash [4]: 0 nmol/L
Filtrate [4]: 411.5 nmol/L
Liberation [4]: 8.1 nmol/L
1st Wash [5]: 16.5 nmol/L
2nd Wash [5]: 29.6 nmol/L
Filtrate [5]: 537.0 nmol/L
Liberation [5]: 11.2 nmol/L
1st Wash [6]: 20.5 nmol/L
2nd Wash [6]: 5.6 nmol/L
Filtrate [6]: 650.1 nmol/L
Liberation [6]: 3.2 nmol/L
1st Wash [7]: 54.4 nmol/L
2nd Wash [7]: 0 nmol/L
Filtrate [7]: 736.9 nmol/L
Liberation [7]: 8.7 nmol/L
1st Wash [8]: 36.9 nmol/L
2nd Wash [8]: 3.0 nmol/L
Filtrate [8]: 1034.4 nmol/L
Liberation [8]: 5.3 nmol/L
1st Wash [9]: 51.7 nmol/L
2nd Wash [9]: 8.6 nmol/L
Filtrate [9]: 1221.4 nmol/L
Liberation [9]: 9.8 nmol/L
1st Wash [10]: 102.8 nmol/L
2nd Wash [10]: 2.3 nmol/L
Filtrate [10]: 2088.5 nmol/L
Liberation [10]: 7.6 nmol/L
1st Wash [11]: 46.2 nmol/L
2nd Wash [11]: 15.6 nmol/L
Filtrate [11]: 2310.8 nmol/L
Liberation [11]: 6.3 nmol/L
1st Wash [12]: 90.8 nmol/L
2nd Wash [12]: 41.8 nmol/L
Filtrate [12]: 2381.4 nmol/L
Liberation [12]: 7.0 nmol/L
1st Wash [13]: 91.7 nmol/L
2nd Wash [13]: 26.6 nmol/L
Filtrate [13]: 2450.0 nmol/L
Liberation [13]: 36.2 nmol/L
1st Wash [14]: 44.0 nmol/L
2nd Wash [14]: 7.4 nmol/L
Filtrate [14]: 2593.2 nmol/L
Liberation [14]: 25.3 nmol/L
1st Wash [15]: 39.7 nmol/L
2nd Wash [15]: 19.6 nmol/L
Filtrate [15]: 2252.1 nmol/L
Liberation [15]: 19.0 nmol/L

1st Wash [1]: 15045 nmol/L
2nd Wash [1]: 750.8 nmol/L
Filtrate [1]: 5970.7 nmol/L
Liberation [1]: 195.0 nmol/L
1st Wash [2]: 451.4 nmol/L
2nd Wash [2]: 100.4 nmol/L
Filtrate [2]: 1482.0 nmol/L
Liberation [2]: 707.0 nmol/L
1st Wash [3]: 600.1 nmol/L
2nd Wash [3]: 202.1 nmol/L
Filtrate [3]: 1848.6 nmol/L
Liberation [3]: 2199.1 nmol/L
1st Wash [4]: 468.9 nmol/L
2nd Wash [4]: 140.3 nmol/L
Filtrate [4]: 2935.2 nmol/L
Liberation [4]: 34.7 nmol/L
1st Wash [5]: 146.5 nmol/L
2nd Wash [5]: 124.3 nmol/L
Filtrate [5]: 1588.2 nmol/L
Liberation [5]: 138.1 nmol/L
1st Wash [6]: 958.0 nmol/L
2nd Wash [6]: 351.4 nmol/L
Filtrate [6]: 3446.6 nmol/L
Liberation [6]: 85.4 nmol/L
1st Wash [7]: 248.3 nmol/L
2nd Wash [7]: 142.0 nmol/L
Filtrate [7]: 1180.6 nmol/L
Liberation [7]: 257.0 nmol/L
1st Wash [8]: 1377.0 nmol/L
2nd Wash [8]: 627.8 nmol/L
Filtrate [8]: 3752.4 nmol/L
Liberation [8]: 151.3 nmol/L
1st Wash [9]: 626.7 nmol/L
2nd Wash [9]: 141.6 nmol/L
Filtrate [9]: 2291.6 nmol/L
Liberation [9]: 439.6 nmol/L
1st Wash [10]: 620.0 nmol/L
2nd Wash [10]: 181.5 nmol/L
Filtrate [10]: 5581.8 nmol/L
Liberation [10]: 504.8 nmol/L
1st Wash [11]: 832.5 nmol/L
2nd Wash [11]: 274.6 nmol/L
Filtrate [11]: 5159.0 nmol/L
Liberation [11]: 616.8 nmol/L
1st Wash [12]: 478.1 nmol/L
2nd Wash [12]: 341.9 nmol/L
Filtrate [12]: 7449.7 nmol/L
Liberation [12]: 674.0 nmol/L
1st Wash [13]: 182.7 nmol/L
2nd Wash [13]: 277.1 nmol/L
Filtrate [13]: 5562.6 nmol/L
Liberation [13]: 2096.1 nmol/L
1st Wash [14]: 1062.4 nmol/L
2nd Wash [14]: 476.6 nmol/L
Filtrate [14]: 8589.0 nmol/L
Liberation [14]: 1015.4 nmol/L
1st Wash [15]: 921.1 nmol/L
2nd Wash [15]: 433.9 nmol/L
Filtrate [15]: 10838.5 nmol/L
Liberation [15]: 279.9 nmol/L
SMILES: O=C(/C=C/c1ccc(O)c(O)c1)O[C@@H](C(=O)O)[C@@H](OC(=O)/C=C/c1ccc(O)c(O)c1)C(=O)O [Substance L6, trans-chicorinic acid]
